Laboratory results from US20260263480A1, “PHARMACEUTICAL COMPOSITION CONTAINING A DIPEPTIDYL PEPTIDASE SMALL MOLECULE INHIBITOR” (HAISCO PHARMACEUTICALS PTE. LTD., priority 2023, published 2026).

Key:
[1] = both, Sprague-Dawley (SD), rat, in vivo, 14 days
Protocol: The treatment group each includes 16 rats, and the vehicle control group includes 10 rats, with a half of male rats and a half of female rats. The drug at corresponding concentrations and the vehicle were administered to the rats through oral gavage daily for 14 consecutive days. The rats were allowed to recover for 7 days. During the administration period, general conditions, body weight and food intake were detected for each group. After the administration period and the recovery period, hematology test, serum biochemistry test and gross anatomical examination were performed for each group.

NE enzyme = conditions: cited from earlier work
[2] = tested on: LPS-induced acute lung injury; conditions: cited from earlier work

## Cn1c(=O)oc2ccc(-c3ccc(C[C@@H](C#N)NC(=O)[C@@H]4CNCCCO4)c(F)c3)cc21 [Compound A, (S)—N—((S)-1-cyano-2-(2-fluoro-4-(3-methyl-2-oxo-2,3-dihydrobenzo[d]oxazol-5-yl)phenyl)ethyl)-1,4-oxazepane-2-carboxamide]
[1]
  Toxicity compared at the same dose: less toxic than INS1007
NE enzyme
  Inhibition of NE enzyme activity in rat bone marrow: significantly inhibit NE enzyme activity in rat bone marrow
[2]
  Effect on LPS-induced acute lung injury in mice: mitigate LPS-induced acute lung injury in mice
